These are literature values, as cited in patent US20240024253A1, “Continuous Drug Delivery Systems and Methods” (Pike Therapeutics Inc., priority 2022, published 2024).

The target of one series is CB2 cannabinoid receptor (Homo sapiens, UniProt P34972). To be noted: CB2 versus CB1.
For the next series, the target named is CB1 cannabinoid receptor. To be noted: parameter not named at the place.

Chain of CB2 cannabinoid receptor (P34972 whole entry): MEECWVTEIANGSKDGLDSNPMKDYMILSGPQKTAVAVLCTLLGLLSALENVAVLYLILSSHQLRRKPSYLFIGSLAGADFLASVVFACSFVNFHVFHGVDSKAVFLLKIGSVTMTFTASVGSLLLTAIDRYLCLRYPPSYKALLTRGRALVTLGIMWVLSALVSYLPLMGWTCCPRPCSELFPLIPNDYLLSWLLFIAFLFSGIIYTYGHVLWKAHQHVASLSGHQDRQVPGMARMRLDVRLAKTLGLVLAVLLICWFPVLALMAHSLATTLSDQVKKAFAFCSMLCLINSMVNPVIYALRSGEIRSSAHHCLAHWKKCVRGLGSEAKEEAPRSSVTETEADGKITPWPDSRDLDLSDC

As to `CCCCCCC(C)(C)c1cc(O)c2c(c1)oc(=O)c1ccc(OC)cc12` [AM-1710], the “selectivity / binding strength CB2 over CB1” value at CB2 cannabinoid receptor is 54 ×.
Take `CCCn1cc(C(=O)c2ccc(C)c3ccccc23)c2ccccc21` [JWH-120]: the “selectivity for CB2 receptor” value on CB2 cannabinoid receptor was 173 fold.
Turning to `CCCn1c(C)c(C(=O)c2ccc(C)c3ccccc23)c2ccccc21` [JWH-148], the “selectivity for CB2 over the CB1 subtype” value at CB2 cannabinoid receptor was “more than 8 times”.
Regarding `CCCCCn1cc(Cc2cccc3ccccc23)c2ccccc21` [JWH-175, (1-pentylindol-3-yl)naphthalen-1-ylmethane], on CB1 cannabinoid receptor, the inhibitory constant (Ki) was 22 nM.
As to `CCCCCCC(C)(C)c1cc(OC)c2c(c1)OC(C)(C)C1CCC(O)CC21` (stereo not drawn) [JWH-350, 11-nor-1-methoxy-3-(1′,1′-dimethylheptyl)-9α-hydroxyhexahydrocannabinol], on CB2 cannabinoid receptor, the “selectivity for CB2 receptor” value is 33 fold.

Broadly, the Ki is a dissociation constant, usually derived from enzyme kinetics or from competition with a known ligand.
